These results are taken from ChEMBL document CHEMBL1128063, “Discovery of selective dopamine D3 ligands: I. Dimeric 2-[4-(3-aminopropoxy)phenyl]benzimidazole antagonists” (Bioorg Med Chem Lett, 1995).

One test deals with D(2) dopamine receptor (Homo sapiens, UniProt P14416). Briefly: Binding affinity towards human cloned Dopamine D2 receptor in CHO cells by [3H]spiperone displacement. In kind it is cell-based.
In the next test the target is D(3) dopamine receptor (Homo sapiens, UniProt P35462). Briefly: Binding affinity towards human cloned Dopamine D3 receptor in CHO cells by [3H]spiperone displacement. It is filed as cell-based.
Chain of D(3) dopamine receptor (P35462 whole entry): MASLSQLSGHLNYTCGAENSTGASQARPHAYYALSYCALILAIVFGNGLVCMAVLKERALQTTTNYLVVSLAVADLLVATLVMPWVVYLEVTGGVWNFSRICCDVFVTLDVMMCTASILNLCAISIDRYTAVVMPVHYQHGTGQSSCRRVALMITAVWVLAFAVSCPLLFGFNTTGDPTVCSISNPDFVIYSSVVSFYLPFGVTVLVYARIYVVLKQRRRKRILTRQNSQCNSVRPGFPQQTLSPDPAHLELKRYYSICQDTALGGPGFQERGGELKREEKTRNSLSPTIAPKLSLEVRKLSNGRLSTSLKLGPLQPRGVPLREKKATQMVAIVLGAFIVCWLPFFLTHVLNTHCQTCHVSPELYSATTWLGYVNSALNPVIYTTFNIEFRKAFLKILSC
In another test the test system is Mus musculus. Briefly: Compound was tested for the locomotory activity in mice after ip administration. It is filed as functional.
Another test relates to Rattus norvegicus. Briefly: Compound was tested for the locomotory activity in rats after oral administration; no effect. It is filed as functional.

Chain of D(2) dopamine receptor (P14416 whole entry): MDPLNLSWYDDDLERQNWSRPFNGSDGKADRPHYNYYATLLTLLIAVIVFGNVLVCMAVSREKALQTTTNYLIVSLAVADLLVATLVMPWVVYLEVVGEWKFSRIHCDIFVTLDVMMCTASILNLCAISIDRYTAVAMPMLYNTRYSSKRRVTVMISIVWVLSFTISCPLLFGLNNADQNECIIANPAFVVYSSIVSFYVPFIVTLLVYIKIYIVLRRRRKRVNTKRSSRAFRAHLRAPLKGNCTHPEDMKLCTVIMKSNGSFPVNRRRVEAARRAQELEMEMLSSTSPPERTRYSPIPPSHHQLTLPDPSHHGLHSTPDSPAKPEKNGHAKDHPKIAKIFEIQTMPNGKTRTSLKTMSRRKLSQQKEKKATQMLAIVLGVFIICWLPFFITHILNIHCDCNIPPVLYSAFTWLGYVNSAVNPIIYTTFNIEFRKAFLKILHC

`CCN(CC)CCCOc1ccc(-c2nc3ccccc3n2C/C=C/Cn2c(-c3ccccc3)nc3ccccc32)cc1`: the Ki at D(2) dopamine receptor came out at 6530 nM; at D(3) dopamine receptor, 133 nM.
As for `C(=C\Cn1c(-c2ccc(OCCCN3CCCCC3)cc2)nc2ccccc21)/Cn1c(-c2ccc(OCCCN3CCCCC3)cc2)nc2ccccc21`, the Ki is 517 nM on D(2) dopamine receptor and 10 nM on D(3) dopamine receptor. Also, the results for the ED50 in the test with Mus musculus and in the test with Rattus norvegicus were 7.1 mg/kg and above 30 mg/kg, respectively.
Turning to `C(=C\Cn1c(-c2ccc(OCCCN3CCN(c4ccccc4)CC3)cc2)nc2ccccc21)/Cn1c(-c2ccc(OCCCN3CCN(c4ccccc4)CC3)cc2)nc2ccccc21`, the values for the Ki on D(2) dopamine receptor and at D(3) dopamine receptor were 3940 nM and 275 nM, respectively.
For the compound `CCN(CC)CCCOc1ccc(-c2nc3ccccc3n2CCCCCCn2c(-c3ccc(OCCCN(CC)CC)cc3)nc3ccccc32)cc1`, the Ki was determined as 1750 nM on D(2) dopamine receptor and 131 nM at D(3) dopamine receptor.
`CCCCN(CCCC)CCCOc1ccc(-c2nc3ccccc3n2C/C=C/Cn2c(-c3ccc(OCCCN(CCCC)CCCC)cc3)nc3ccccc32)cc1` showed a Ki at D(2) dopamine receptor of 472 nM.
In the case of `CCN(CC)CCCOc1ccc(-c2nc3ccccc3n2C/C=C/Cn2c(C)nc3ccccc32)cc1`, the results for the Ki at D(2) dopamine receptor and on D(3) dopamine receptor were above 3330 nM and 1200 nM, respectively.
Taken in the same sequence, the figures for `CCN(CC)CCCOc1ccc(-c2nc3ccccc3n2Cc2ccc(Cn3c(-c4ccc(OCCCN(CC)CC)cc4)nc4ccccc43)cc2)cc1` were 3440 nM and 184 nM.
On to `CCN(CC)CCCOc1ccc(-c2nc3ccccc3n2C/C=C/Cn2c(-c3ccc(OCCCN(CC)CC)cc3)nc3ccccc32)cc1`, for which the Ki on D(2) dopamine receptor worked out at 2350 nM; on D(3) dopamine receptor, 35 nM.
In the case of `C(=C\Cn1c(-c2ccc(OCCCN3CCOCC3)cc2)nc2ccccc21)/Cn1c(-c2ccc(OCCCN3CCOCC3)cc2)nc2ccccc21`, the Ki on D(2) dopamine receptor was above 3330 nM; on D(3) dopamine receptor, above 2040 nM.
As to `CCN(CC)CCCOc1ccc(-c2nc3ccccc3n2CCCCn2c(-c3ccc(OCCCN(CC)CC)cc3)nc3ccccc32)cc1`, the Ki stood at 1490 nM at D(2) dopamine receptor and 28 nM at D(3) dopamine receptor.
For the compound `CCCN(CCC)CCCOc1ccc(-c2nc3ccccc3n2C/C=C/Cn2c(-c3ccc(OCCCN(CCC)CCC)cc3)nc3ccccc32)cc1`, the Ki was determined as 343 nM at D(2) dopamine receptor and 5 nM at D(3) dopamine receptor.
Regarding `CCN(CC)CCCOc1ccc(-c2nc3ccccc3n2C/C=C/Cn2c(-c3ccc(OC)cc3)nc3ccccc32)cc1`, at D(2) dopamine receptor, the Ki stood at 1410 nM.
On to `CCN(CC)CCCOc1ccc(-c2nc3ccccc3n2C/C=C/Cn2c(-c3ccc(OCCCN4CCN(c5ccccc5)CC4)cc3)nc3ccccc32)cc1`, for which the inhibition constant Ki at D(2) dopamine receptor stood at 803 nM; at D(3) dopamine receptor, 19 nM.
With `CN(C)CCCOc1ccc(-c2nc3ccccc3n2C/C=C/Cn2c(-c3ccc(OCCCN(C)C)cc3)nc3ccccc32)cc1`, the Ki was determined as 4990 nM at D(2) dopamine receptor and 144 nM on D(3) dopamine receptor.
For `CCN(CC)CCCOc1ccc(-c2nc3ccccc3n2C/C=C/Cn2c(-c3ccc(OCCCC4CCCCC4)cc3)nc3ccccc32)cc1`, the figures for the Ki at D(2) dopamine receptor and on D(3) dopamine receptor were 1030 nM and 39 nM, respectively.
For the compound `C(=C\Cn1c(-c2ccc(OCCCN3CCCC3)cc2)nc2ccccc21)/Cn1c(-c2ccc(OCCCN3CCCC3)cc2)nc2ccccc21`, the Ki on D(2) dopamine receptor came out at 56 nM; at D(3) dopamine receptor, 9 nM.
Take `CCN(CC)CCCOc1ccc(-c2nc3ccccc3n2CC=CCn2c(-c3ccc(OCCCN(CC)CC)cc3)nc3ccccc32)cc1`: the Ki amounted to 1520 nM on D(2) dopamine receptor and 87 nM on D(3) dopamine receptor.

For orientation: Ki means the equilibrium dissociation constant of an inhibitor or competing ligand from its target. Higher therefore signals weaker binding. For orientation: ED50 means the dose that gives a 50% effect, or the effect in half of the subjects.
